Source: patent publication US20070128217A1 (priority 2003, published 2007)

What was measured:
[1] = system: antibodies in sera from SARS patients (sera 1a, 1b, 2, 6, 37, 62, London, SARS-yellow, SARS-green); assay type: binding, human; set-up: Binding of serum 6 to linear peptides of protein X1 of SARS-CoV Urbani / Binding of serum 37 to linear peptides of protein X1 of SARS-CoV Urbani / Binding of serum 6 to looped/cyclic peptide (PEPSCAN-ELISA) / Binding of serum 37 to looped/cyclic peptide (PEPSCAN-ELISA) / Binding of serum 37 to looped/cyclic peptides of protein X1 of SARS-CoV Urbani / Binding of serum 6 to linear peptides of protein X2 / Binding of serum 37 to linear peptides of protein X2 / Binding of serum 37 to looped/cyclic peptides of protein X2 of SARS-CoV Urbani / Binding of serum 6 to linear peptides of protein M of SARS-CoV Urbani / Binding of serum 37 to linear peptides of protein M of SARS-CoV Urbani / Binding of serum 6 to looped/cyclic peptides of protein M of SARS-CoV Urbani / Binding of serum 37 to looped/cyclic peptides of protein M of SARS-CoV Urbani / Binding of serum 6 to linear peptides of protein X3 of SARS-CoV Urbani / Binding of serum 37 to linear peptides of protein X3 of SARS-CoV Urbani / Binding of serum 37 to looped/cyclic peptides of protein X3 of SARS-CoV Urbani / Binding of serum 6 to linear peptides of protein X4 of SARS-CoV Urbani / Binding of serum 37 to linear peptides of protein X4 of SARS-CoV Urbani / Binding of serum 37 to looped/cyclic peptides of protein X4 of SARS-CoV Urbani / Binding of serum 6 to linear peptides of protein X5 of SARS-CoV Urbani / Binding of serum 37 to linear peptides of protein X5 of SARS-CoV Urbani / Binding of serum 37 to looped/cyclic peptides of protein X5 of SARS-CoV Urbani / Binding of serum 6 to linear peptides of protein N of SARS-CoV Urbani / Binding of serum 37 to linear peptides of protein N of SARS-CoV Urbani / Binding of serum 6 to linear peptide (PEPSCAN-ELISA) / Binding of serum 1a to looped/cyclic peptides of protein N of SARS-CoV Urbani / Binding of serum 1b to looped/cyclic peptides of protein N of SARS-CoV Urbani / Binding of serum 2 to looped/cyclic peptides of protein N of SARS-CoV Urbani / Binding of serum 6 to looped/cyclic peptides of protein N of SARS-CoV Urbani / Binding of serum 37 to looped/cyclic peptides of protein N of SARS-CoV Urbani / Binding of serum 62 to looped/cyclic peptides of protein N of SARS-CoV Urbani / Binding of serum London to looped/cyclic peptides of protein N of SARS-CoV Urbani / Binding of serum SARS-green to looped/cyclic peptides of protein N of SARS-CoV Urbani: unit not given here
[2] = system: control sera (pooled serum of ten healthy LUMC hospital workers; commercial negative donor pooled serum from the Dutch bloodbank); assay type: binding, human; set-up: Binding of Control serum LUMC to linear peptides / Binding of Control serum Blood-bank to linear peptides / Binding of Control serum LUMC to looped peptides / Binding of Control Serum Blood-Bank to Looped peptides / Binding of Control serum LUMC to linear peptides of the protein M of SARS-CoV Urbani / Binding of Control serum Blood-bank to linear peptides of the protein M of SARS-CoV Urbani / Binding of Control serum LUMC to looped peptides of the protein M of SARS-CoV Urbani / Binding of Control Serum Blood-Bank to Looped peptides of the protein M of SARS-CoV Urbani: unit not given here
[3] = system: rabbit serum obtained by immunizing a rabbit with the SARS-CoV strain Frankfurt 1; assay type: binding; set-up: Binding of a rabbit serum to linear peptides / Binding of a rabbit serum to looped peptides / Rabbit serum linear peptides / Rabbit serum looped peptides / Binding of a rabbit serum to linear peptides of protein N of SARS-CoV Urbani (Rabbit serum linear peptides) / Binding of a rabbit serum to looped/cyclic peptides of protein N of SARS-CoV Urbani (Rabbit serum looped peptides): unit not given here
[4] = system: recombinant human anti-SARS-CoV antibody 03-018; assay type: binding; set-up: Binding of antibody 03-018 to linear peptides of the N protein of SARS-CoV Urbani / Binding of antibody 03-018 to looped/cyclic peptides of the N protein of SARS-CoV Urbani: unit not given here

Sequence	Binding of serum 1a to linear peptides of protein N of SARS-CoV Urbani [1]	Binding of serum 1a to looped/cyclic peptides of protein N of SARS-CoV Urbani [1]	Binding of serum 1b to linear peptides of protein N of SARS-CoV Urbani [1]	Binding of serum 1b to looped/cyclic peptides of protein N of SARS-CoV Urbani [1]	Binding of serum 2 to linear peptides of protein N of SARS-CoV Urbani [1]	Binding of serum 2 to looped/cyclic peptides of protein N of SARS-CoV Urbani [1]	Binding of serum 6 to linear peptides of protein N of SARS-CoV Urbani [1]	Binding of serum 6 to looped/cyclic peptides of protein N of SARS-CoV Urbani [1]	Binding of serum 37 to linear peptides of protein N of SARS-CoV Urbani [1]	Binding of serum 37 to looped/cyclic peptides of protein N of SARS-CoV Urbani [1]	Binding of serum 62 to linear peptides of protein N of SARS-CoV Urbani [1]	Binding of serum 62 to looped/cyclic peptides of protein N of SARS-CoV Urbani [1]	Binding of serum London to linear peptides of protein N of SARS-CoV Urbani [1]	Binding of serum London to looped/cyclic peptides of protein N of SARS-CoV Urbani [1]	Binding of serum SARS-green to linear peptides of protein N of SARS-CoV Urbani [1]	Binding of serum SARS-green to looped/cyclic peptides of protein N of SARS-CoV Urbani [1]	Binding of serum SARS-yellow to linear peptides of protein N of SARS-CoV Urbani [1]	Binding of serum SARS-yellow to looped/cyclic peptides of protein N of SARS-CoV Urbani [1]	Binding of a rabbit serum to linear peptides of protein N of SARS-CoV Urbani (Rabbit serum linear peptides) [3]	Binding of a rabbit serum to looped/cyclic peptides of protein N of SARS-CoV Urbani (Rabbit serum looped peptides) [3]	also measured
NNNAATVLQLPQGTT	0.2	0.4	0.1	0.3	0.2	0.5	0.1	0.2	0.7	0.6	0.5	0.5	0.5	0.5	0.4	0.5	0.7	0.4	0.1	0.4	Binding of Control Serum Blood-Bank to Looped peptides [2]: 0.7; Binding of Control serum Blood-bank to linear peptides [2]: 0.8; Binding of Control serum LUMC to linear peptides [2]: 0.7; Binding of Control serum LUMC to looped peptides [2]: 0.8; Binding of antibody 03-018 to linear peptides of the N protein of SARS-CoV Urbani [4]: 0.1; Binding of antibody 03-018 to looped/cyclic peptides of the N protein of SARS-CoV Urbani [4]: 0.3
DLIRQGTDYKHWPQI	0.2	0.4	0.1	0.2	0.2	0.4	0.2	0.2	0.6	0.6	0.6	0.6	0.9	0.4	0.4	0.2	0.6	0.3	0.0	0.5	Binding of Control Serum Blood-Bank to Looped peptides [2]: 0.5; Binding of Control serum Blood-bank to linear peptides [2]: 0.6; Binding of Control serum LUMC to linear peptides [2]: 0.5; Binding of Control serum LUMC to looped peptides [2]: 0.5; Binding of antibody 03-018 to linear peptides of the N protein of SARS-CoV Urbani [4]: 0.1; Binding of antibody 03-018 to looped/cyclic peptides of the N protein of SARS-CoV Urbani [4]: 0.2
KKDKKKKTDEAQPLP	0.3	0.2	0.2	0.1	1.9	2.3	0.2	0.2	0.7	0.3	0.7	0.3	0.6	0.3	0.4	0.1	0.6	0.1	0.1	0.2	Control Serum Blood-Bank Looped peptides [2]: 0.5; Control serum Blood-bank linear peptides [2]: 0.7; Control serum LUMC linear peptides [2]: 0.6; Control serum LUMC looped peptides [2]: 0.4; Binding of antibody 03-018 to linear peptides of the N protein of SARS-CoV Urbani [4]: 0.1; Binding of antibody 03-018 to looped/cyclic peptides of the N protein of SARS-CoV Urbani [4]: 0.2
SWFTALTQHGKEELR	0.2	0.2	0.1	0.1	0.2	0.2	0.1	0.1	0.6	0.3	0.6	0.2	0.5	0.2	0.2	0.1	0.5	0.0	0.1	0.0	Binding of Control Serum Blood-Bank to Looped peptides [2]: 0.4; Binding of Control serum Blood-bank to linear peptides [2]: 0.6; Binding of Control serum LUMC to linear peptides [2]: 0.7; Binding of Control serum LUMC to looped peptides [2]: 0.3; Binding of antibody 03-018 to linear peptides of the N protein of SARS-CoV Urbani [4]: 0.1; Binding of antibody 03-018 to looped/cyclic peptides of the N protein of SARS-CoV Urbani [4]: 0.2
